Results reported in patent US20240067693A1, “POLYPEPTIDES AND USES THEREOF” (MEDIMMUNE LIMITED, priority 2020, published 2024).
Numbered stars: 1 amine (or outer) side, 2 acyl side, 3 side chain; on linkers, the order of the positions; unused ones are H or OH. Bridge positions count the residues as written; N and C are the ends. Square brackets hold non-standard residues; d marks the D form. Side chains are listed from the residue outwards. Peptide text beside a SMILES is read from it. * marks the point of attachment. C18 diacid = O=C(O)CCCCCCCCCCCCCCCCC(=O)*; γGlu = O=C(O)[C@H](CCC(=O)[*:2])N[*:1]; αMeF = C[C@](N)(Cc1ccccc1)C(=O)O; Dab = NCC[C@H](N)C(=O)O; Aib = CC(C)(N)C(=O)O

How the values were obtained:
in vivo = details: male, Sprague-Dawley, rat, 20 nmol/kg
[1] = biological target: T1, rat amylin receptor (calcitonin receptor co-expressed with receptor activity modifying protein, RAMP3) (Rat AMYR3) (Rattus norvegicus, UniProt P32214+Q9JJ73); test: cAMP production in HEK cells with stable recombinant expression of rat amylin receptor (Rat AMYR3); assay type: cell-based; details: assay buffer with 0.1% BSA
T1 construct: expressed in transfected cells
T1 sequence (P32214 25-516): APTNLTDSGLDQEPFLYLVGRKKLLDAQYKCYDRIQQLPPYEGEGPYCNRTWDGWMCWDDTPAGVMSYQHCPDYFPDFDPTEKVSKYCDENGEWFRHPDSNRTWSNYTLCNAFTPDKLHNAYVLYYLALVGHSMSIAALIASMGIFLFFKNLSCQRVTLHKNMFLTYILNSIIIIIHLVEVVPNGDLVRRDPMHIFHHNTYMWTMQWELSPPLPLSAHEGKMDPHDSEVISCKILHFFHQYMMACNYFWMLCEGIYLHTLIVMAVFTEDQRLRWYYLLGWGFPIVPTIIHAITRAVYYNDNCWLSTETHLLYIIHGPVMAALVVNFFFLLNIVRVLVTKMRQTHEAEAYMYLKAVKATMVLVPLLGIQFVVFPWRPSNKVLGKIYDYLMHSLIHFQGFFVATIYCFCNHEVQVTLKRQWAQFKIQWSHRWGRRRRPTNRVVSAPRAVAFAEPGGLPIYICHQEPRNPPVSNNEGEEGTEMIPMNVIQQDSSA
T1 sequence (Q9JJ73 23-147 partner): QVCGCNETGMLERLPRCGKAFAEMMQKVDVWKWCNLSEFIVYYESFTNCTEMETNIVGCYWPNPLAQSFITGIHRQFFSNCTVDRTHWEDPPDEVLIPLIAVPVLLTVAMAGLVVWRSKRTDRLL
Summary of the method: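 EC50 values come from 4-parameter logistic fits of HTRF cAMP signal, normalised to maximal calcitonin or amylin effect. Peptides were tested in duplicate for 30 min at RT in IBMX-containing (0.5 mM) BSA/HEPES buffer pH 7.4 on stable 1321N1 (human CTR, AMYR3) or HEK (rat CTR, AMYR3) lines.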

lean rats = test: Rat acute food intake study; assay type: in vivo; details: lean male Sprague Dawley rats, 20 nmol/kg subcutaneously
Summary of the method: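 Male Sprague Dawley rats (n=7/group), fasted 6 h, received 20 nmol/kg test compound or 60 nmol/kg pramlintide subcutaneously 30 min before food return at dark onset. Food intake recorded automatically in home cages over 3 days, binned hourly and analysed as cumulative dark-period intake; body weight taken daily.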

SMILES	half-life (in vivo; iv) [min]	half-life (in vivo; sc) [min]	EC50 [1] [pM]	Cummulative food intake (% vehicle treated intake) At 12 h (lean rats) [% vehicle treated intake]	Cummulative food intake (% vehicle treated intake) At 24 h (lean rats) [% vehicle treated intake]	Cummulative food intake (% vehicle treated intake) At 48 h (lean rats) [% vehicle treated intake]
CC[C@H](C)[C@H](NC(=O)[C@@H]1CCCN1C(=O)CNC(=O)[C@](C)(Cc1ccccc1)NC(=O)[C@H](CC(N)=O)NC(=O)[C@H](CC(N)=O)NC(=O)[C@H](CO)NC(=O)[C@H](CO)NC(=O)[C@H](Cc1c[nH]cn1)NC(=O)[C@@H](NC(=O)[C@H](CC(C)C)NC(=O)[C@H](Cc1ccccc1)NC(=O)[C@H](CC(N)=O)NC(=O)[C@H](C)NC(=O)[C@H](CC(C)C)NC(=O)[C@H](CCCNC(=N)N)NC(=O)[C@H](CCC(N)=O)NC(=O)[C@@H](NC(=O)[C@H](C)NC(=O)[C@@H]1CSSC[C@H](NC(=O)[C@@H](N)CCCCNC(=O)CC[C@H](NC(=O)CC[C@H](NC(=O)CCCCCCCCCCCCCCCCC(=O)O)C(=O)O)C(=O)O)C(=O)N[C@@H](CC(N)=O)C(=O)N[C@@H]([C@@H](C)O)C(=O)N[C@@H](C)C(=O)N[C@@H]([C@@H](C)O)C(=O)N1)[C@@H](C)O)C(C)C)C(=O)N[C@@H](CC(C)C)C(=O)N1CCC[C@H]1C(=O)N1CCC[C@H]1C(=O)N[C@H](C(=O)N[C@@H](CCCNC(=N)N)C(=O)N[C@H](C(=O)NCC(=O)N[C@@H](CO)C(=O)N[C@@H](CC(N)=O)C(=O)N[C@H](C(=O)N[C@@H](Cc1ccc(O)cc1)C(N)=O)[C@@H](C)O)C(C)C)[C@@H](C)O [Peptide 24, K(γE-γE-C18diacid)[CNTATC]ATQRLANFLVHSSNN(αMePhe)GPILPPTRVGSNTY-amide] (H-K([γGlu-γGlu-C18 diacid])CNTATCATQRLANFLVHSSNN[αMeF]GPILPPTRVGSNTY-NH2; disulfide 2-7; N-terminus assumed)	564	630	17.7	18.7	19.4	40.6
CC[C@H](C)[C@H](NC(=O)[C@@H]1CCCN1C(=O)CNC(=O)[C@H](Cc1ccccc1)NC(=O)[C@H](CC(N)=O)NC(=O)[C@H](CC(N)=O)NC(=O)[C@H](CO)NC(=O)[C@H](CO)NC(=O)[C@H](Cc1c[nH]cn1)NC(=O)[C@@H](NC(=O)[C@H](CC(C)C)NC(=O)[C@H](Cc1ccccc1)NC(=O)[C@H](CC(N)=O)NC(=O)[C@H](C)NC(=O)[C@H](CC(C)C)NC(=O)[C@H](CCCNC(=N)N)NC(=O)[C@H](CCC(N)=O)NC(=O)[C@@H](NC(=O)[C@H](C)NC(=O)[C@@H]1CSSC[C@H](NC(=O)[C@H](CCCCN)NC(=O)CC[C@H](NC(=O)CCCCCCCCCCCCCCCCC(=O)O)C(=O)O)C(=O)N[C@@H](CC(N)=O)C(=O)N[C@@H]([C@@H](C)O)C(=O)N[C@@H](C)C(=O)N[C@@H]([C@@H](C)O)C(=O)N1)[C@@H](C)O)C(C)C)C(=O)N[C@@H](CC(C)C)C(=O)N1CCC[C@H]1C(=O)N1CCC[C@H]1C(=O)N[C@H](C(=O)N[C@@H](CC(N)=O)C(=O)N[C@H](C(=O)NCC(=O)N[C@@H](CO)C(=O)N[C@@H](CC(N)=O)C(=O)N[C@H](C(=O)N[C@@H](Cc1ccc(O)cc1)C(N)=O)[C@@H](C)O)C(C)C)[C@@H](C)O [Peptide 3] ({C18 diacid-γGlu}-KCNTATCATQRLANFLVHSSNNFGPILPPTNVGSNTY-NH2; disulfide 2-7)	840	–	2.9	13.4	14.4	30.3
CC[C@H](C)[C@H](NC(=O)[C@H](C)NC(=O)[C@@H]1CCCN1C(=O)[C@H](Cc1ccccc1)NC(=O)[C@H](CC(N)=O)NC(=O)C(C)(C)NC(=O)[C@H](CO)NC(=O)[C@H](CO)NC(=O)[C@H](Cc1c[nH]cn1)NC(=O)[C@@H](NC(=O)[C@H](CC(C)C)NC(=O)[C@H](Cc1ccccc1)NC(=O)[C@H](CC(N)=O)NC(=O)[C@H](C)NC(=O)[C@H](CC(C)C)NC(=O)[C@H](CCCNC(=N)N)NC(=O)[C@H](CCC(N)=O)NC(=O)[C@@H](NC(=O)[C@H](C)NC(=O)[C@@H]1CSSC[C@H](NC(=O)[C@@H](N)CCCCNC(=O)CC[C@H](NC(=O)CC[C@H](NC(=O)CCCCCCCCCCCCCCCCC(=O)O)C(=O)O)C(=O)O)C(=O)N[C@@H](CC(N)=O)C(=O)N[C@@H]([C@@H](C)O)C(=O)N[C@@H](C)C(=O)N[C@@H]([C@@H](C)O)C(=O)N1)[C@@H](C)O)C(C)C)C(=O)N[C@@H](CC(C)C)C(=O)N[C@@H](CO)C(=O)N1CCC[C@H]1C(=O)N[C@H](C(=O)N[C@@H](CC(N)=O)C(=O)N[C@H](C(=O)NCC(=O)N[C@@H](CO)C(=O)N[C@@H](CC(N)=O)C(=O)N[C@H](C(=O)N[C@@H](Cc1ccc(O)cc1)C(N)=O)[C@@H](C)O)C(C)C)[C@@H](C)O [Peptide 9, K(γE-γE-C18diacid)[CNTATC]ATQRLANFLVHSS(Aib)NFPAILSPTNVGSNTY-amide] (H-K([γGlu-γGlu-C18 diacid])CNTATCATQRLANFLVHSS[Aib]NFPAILSPTNVGSNTY-NH2; disulfide 2-7)	354	468	17.8	21.9	30.8	56.5
CC[C@H](C)[C@H](NC(=O)[C@H](C)NC(=O)[C@@H]1CCCN1C(=O)[C@H](Cc1ccccc1)NC(=O)[C@H](CC(N)=O)NC(=O)[C@H](CCN)NC(=O)[C@H](CO)NC(=O)[C@H](CO)NC(=O)[C@H](Cc1c[nH]cn1)NC(=O)[C@@H](NC(=O)[C@H](CC(C)C)NC(=O)[C@H](Cc1ccccc1)NC(=O)[C@H](CC(N)=O)NC(=O)[C@H](C)NC(=O)[C@H](CC(C)C)NC(=O)[C@H](CCCNC(=N)N)NC(=O)[C@H](CCC(N)=O)NC(=O)[C@@H](NC(=O)[C@H](C)NC(=O)[C@@H]1CSSC[C@H](NC(=O)[C@@H](N)CCCCNC(=O)CC[C@H](NC(=O)CC[C@H](NC(=O)CCCCCCCCCCCCCCCCC(=O)O)C(=O)O)C(=O)O)C(=O)N[C@@H](CC(N)=O)C(=O)N[C@@H]([C@@H](C)O)C(=O)N[C@@H](C)C(=O)N[C@@H]([C@@H](C)O)C(=O)N1)[C@@H](C)O)C(C)C)C(=O)N[C@@H](CC(C)C)C(=O)N[C@@H](CO)C(=O)N1CCC[C@H]1C(=O)N[C@H](C(=O)N[C@@H](CC(N)=O)C(=O)N[C@H](C(=O)NCC(=O)N[C@@H](CO)C(=O)N[C@@H](CC(N)=O)C(=O)N[C@H](C(=O)N[C@@H](Cc1ccc(O)cc1)C(N)=O)[C@@H](C)O)C(C)C)[C@@H](C)O [Peptide 8, K(γE-γE-C18diacid)[CNTATC]ATQRLANFLVHSS(Dab)NFPAILSPTNVGSNTY-amide] (H-K([γGlu-γGlu-C18 diacid])CNTATCATQRLANFLVHSS[Dab]NFPAILSPTNVGSNTY-NH2; disulfide 2-7)	252	372	25.6	28.1	42.7	68.8
